Data from patent US20030191342A1, “Process for the production of crystals of a benzoic acid derivative” (priority 2000, published 2003).

Experiments:
[1] = Grain size distribution by laser-type grain size analyzer (Microtrac FRA); type: physicochemical; conditions: crystals dispersed in aqueous Soprophor FL; for Average grain size 10%: 10% point of grain size distribution; for Average grain size 50%: 50% point of grain size distribution; for Average grain size 90%: 90% point of grain size distribution
Procedure: Grain size distributions of the crystals obtained in Example 1 and Comparative Example 1 were measured. A laser-type grain size analyzer (Microtrac FRA) was used. A 1% aqueous solution of Soprophor FL (3 ml, Rhone-Poulenc) was added with water (15 ml), and an appropriate amount of the crystals obtained in Example 1 or Comparative Example 1 were dispersed in the mixture to obtain a sample dispersion.

[2] = background art statement, no method given; cited from earlier work

Structure (SMILES) | Average grain size 10% [1] [μm] | Average grain size 50% [1] [μm] | Average grain size 90% [1] [μm] | stability of crystalline form against physical impact [2] | stability against heat, temperature, light and the like [2]
CC1(C)CCC(C)(C)c2cc(NC(=O)c3ccc(C(=O)O)cc3)ccc21 [Ethanol/water, 4-[(5,6,7,8-Tetrahydro-5,5,8,8-tetramethyl-2-naphthalenyl)carbamoyl]benzoic acid] | 16.38 | 39.74 | 86.92 | – | –
CC1(C)CCC(C)(C)c2cc(NC(=O)c3ccc(C(=O)O)cc3)ccc21 [Methanol/water, 4-[(5,6,7,8-Tetrahydro-5,5,8,8-tetramethyl-2-naphthalenyl)carbamoyl]benzoic acid, reference compound] | 42.74 | 96.29 | 268.75 | – | –
CC1(C)CCC(C)(C)c2cc(NC(=O)c3ccc(C(=O)O)cc3)ccc21 [crystal that melts at 193° C., 4-[(5,6,7,8-tetrahydro-5,5,8,8-tetramethyl-2-naphthalenyl)carbamoyl]benzoic acid, reference compound] | – | – | – | crystalline form readily occurs transition by physical impact | –
CC1(C)CCC(C)(C)c2cc(NC(=O)c3ccc(C(=O)O)cc3)ccc21 [crystal that melts at 233° C., 4-[(5,6,7,8-tetrahydro-5,5,8,8-tetramethyl-2-naphthalenyl)carbamoyl]benzoic acid] | – | – | – | high stability | high stability
